{"source": "patent US11331299B2", "about": "“Medicinal use of serrulatane diterpenes” (The University of Sydney, priority 2016, dated 2022)", "system": "280 human cancer cell lines", "experiment": "OncoPanel cell proliferation assay (10-day)", "format": "cell-based", "conditions": "Homo sapiens; for GI50: read-out: Cell Count GI50; for IC50: read-out: Cell Count IC50; for EC50: read-out: Cell Count EC50", "key": {"[1]": {"conditions": "C-4-II, C-4 II, Female GU - Cervix"}, "[2]": {"conditions": "C-33-A, C-33A, Female GU - Cervix"}, "[3]": {"conditions": "CAL-62, CAL-62, Endocrine - Thyroid"}, "[4]": {"conditions": "CCF-STTG1, CCF-STTG1, CNS - Glioma"}, "[5]": {"conditions": "CGTH-W-1, CGTH-W-1, Endocrine - Thyroid"}, "[6]": {"conditions": "CHP-212, CHP-212, CNS - Neuroblastoma"}, "[7]": {"conditions": "COLO-320-HSR, Colo 320 HSR, Colon"}, "[8]": {"conditions": "COLO-829, COLO 829, Skin (Melanoma)"}, "[9]": {"conditions": "COR-L105, COR-L105, Lung - NSCLC"}, "[10]": {"conditions": "Ca-Ski, Ca Ski, Female GU - Ovary"}}, "note": "Where two headings read alike, the source gives them in different places.", "data": [{"smiles": "CC(C)=CCC[C@@H]1C(O)Oc2c(C)cc(O)c3c2[C@H]1CC[C@H]3C", "note": "(some centres unmarked) [Compound 2, 5,18-epoxyserrulat-14-en-8,18-diol]", "values": [{"measurement": "GI50", "setting": "BT-474, BT474, Breast", "result": "> 30", "unit": "µM"}, {"measurement": "IC50", "setting": "BT-474, BT474, Breast", "result": "> 30", "unit": "µM"}, {"measurement": "EC50", "setting": "BT-549, BT-549, Breast", "result": 25.8, "unit": "µM"}, {"measurement": "GI50", "setting": "BT-549, BT-549, Breast", "result": 25.8, "unit": "µM"}, {"measurement": "IC50", "setting": "BT-549, BT-549, Breast", "result": 25.9, "unit": "µM"}, {"measurement": "EC50", "setting": "BV-173, BV-173, Leukemia", "result": 9.33, "unit": "µM"}, {"measurement": "GI50", "setting": "BV-173, BV-173, Leukemia", "result": 9.33, "unit": "µM"}, {"measurement": "IC50", "setting": "BV-173, BV-173, Leukemia", "result": 9.33, "unit": "µM"}, {"measurement": "EC50", "setting": "BXPC-3, BxPC-3, Pancreas", "result": 13, "unit": "µM"}, {"measurement": "GI50", "setting": "BXPC-3, BxPC-3, Pancreas", "result": "> 30", "unit": "µM"}, {"measurement": "IC50", "setting": "BXPC-3, BxPC-3, Pancreas", "result": "> 30", "unit": "µM"}, {"measurement": "EC50", "setting": "BeWo, Placenta", "result": 7.68, "unit": "µM"}, {"measurement": "GI50", "setting": "BeWo, Placenta", "result": "> 30", "unit": "µM"}, {"measurement": "IC50", "setting": "BeWo, Placenta", "result": "> 30", "unit": "µM"}, {"measurement": "EC50", "setting": "C32, Skin (Melanoma)", "result": 19.2, "unit": "µM"}, {"measurement": "GI50", "setting": "C32, Skin (Melanoma)", "result": 15.5, "unit": "µM"}, {"measurement": "IC50", "setting": "C32, Skin (Melanoma)", "result": 19.2, "unit": "µM"}, {"measurement": "EC50", "setting": "[1]", "result": 8.94, "unit": "µM"}, {"measurement": "GI50", "setting": "[1]", "result": 9, "unit": "µM"}, {"measurement": "IC50", "setting": "[1]", "result": 9.03, "unit": "µM"}, {"measurement": "EC50", "setting": "[2]", "result": 12, "unit": "µM"}, {"measurement": "GI50", "setting": "[2]", "result": 11.9, "unit": "µM"}, {"measurement": "IC50", "setting": "[2]", "result": 12, "unit": "µM"}, {"measurement": "EC50", "setting": "CA46, CA46, Lymphoma", "result": 3.83, "unit": "µM"}, {"measurement": "GI50", "setting": "CA46, CA46, Lymphoma", "result": 3.82, "unit": "µM"}, {"measurement": "IC50", "setting": "CA46, CA46, Lymphoma", "result": 3.83, "unit": "µM"}, {"measurement": "EC50", "setting": "CAKI-1, Caki-1, Kidney", "result": 0.17, "unit": "µM"}, {"measurement": "GI50", "setting": "CAKI-1, Caki-1, Kidney", "result": "> 30", "unit": "µM"}, {"measurement": "IC50", "setting": "CAKI-1, Caki-1, Kidney", "result": "> 30", "unit": "µM"}, {"measurement": "EC50", "setting": "CAKI-2, Caki-2, Kidney", "result": 28.8, "unit": "µM"}, {"measurement": "GI50", "setting": "CAKI-2, Caki-2, Kidney", "result": 28.9, "unit": "µM"}, {"measurement": "IC50", "setting": "CAKI-2, Caki-2, Kidney", "result": 29.1, "unit": "µM"}, {"measurement": "EC50", "setting": "CAL-27, Cal 27, Head and Neck", "result": 7.64, "unit": "µM"}, {"measurement": "GI50", "setting": "CAL-27, Cal 27, Head and Neck", "result": 7.62, "unit": "µM"}, {"measurement": "IC50", "setting": "CAL-27, Cal 27, Head and Neck", "result": 7.64, "unit": "µM"}, {"measurement": "EC50", "setting": "[3]", "result": 5.6, "unit": "µM"}, {"measurement": "GI50", "setting": "[3]", "result": 5.78, "unit": "µM"}, {"measurement": "IC50", "setting": "[3]", "result": 5.79, "unit": "µM"}, {"measurement": "EC50", "setting": "CAMA-1, CAMA-1, Breast", "result": "> 30", "unit": "µM"}, {"measurement": "GI50", "setting": "CAMA-1, CAMA-1, Breast", "result": "> 30", "unit": "µM"}, {"measurement": "IC50", "setting": "CAMA-1, CAMA-1, Breast", "result": "> 30", "unit": "µM"}, {"measurement": "EC50", "setting": "CAPAN-1, Capan-1, Pancreas", "result": "> 30", "unit": "µM"}, {"measurement": "GI50", "setting": "CAPAN-1, Capan-1, Pancreas", "result": "> 30", "unit": "µM"}, {"measurement": "IC50", "setting": "CAPAN-1, Capan-1, Pancreas", "result": "> 30", "unit": "µM"}, {"measurement": "EC50", "setting": "[4]", "result": "> 30", "unit": "µM"}, {"measurement": "GI50", "setting": "[4]", "result": "> 30", "unit": "µM"}, {"measurement": "IC50", "setting": "[4]", "result": "> 30", "unit": "µM"}, {"measurement": "EC50", "setting": "CCRF-CEM, CCRFCEM, Leukemia", "result": 11.5, "unit": "µM"}, {"measurement": "GI50", "setting": "CCRF-CEM, CCRFCEM, Leukemia", "result": 11.4, "unit": "µM"}, {"measurement": "IC50", "setting": "CCRF-CEM, CCRFCEM, Leukemia", "result": 11.5, "unit": "µM"}, {"measurement": "EC50", "setting": "CEM/C1, CEM-C1, Leukemia", "result": 3.26, "unit": "µM"}, {"measurement": "GI50", "setting": "CEM/C1, CEM-C1, Leukemia", "result": 3.26, "unit": "µM"}, {"measurement": "IC50", "setting": "CEM/C1, CEM-C1, Leukemia", "result": 3.26, "unit": "µM"}, {"measurement": "EC50", "setting": "CFPAC-1, CFPAC-1, Pancreas", "result": 12.3, "unit": "µM"}, {"measurement": "GI50", "setting": "CFPAC-1, CFPAC-1, Pancreas", "result": 13.4, "unit": "µM"}, {"measurement": "IC50", "setting": "CFPAC-1, CFPAC-1, Pancreas", "result": 13.5, "unit": "µM"}, {"measurement": "EC50", "setting": "[5]", "result": 5.83, "unit": "µM"}, {"measurement": "GI50", "setting": "[5]", "result": 5.81, "unit": "µM"}, {"measurement": "IC50", "setting": "[5]", "result": 5.83, "unit": "µM"}, {"measurement": "EC50", "setting": "CHL-1, CHL-1, Skin (Melanoma)", "result": 14.3, "unit": "µM"}, {"measurement": "GI50", "setting": "CHL-1, CHL-1, Skin (Melanoma)", "result": 14.2, "unit": "µM"}, {"measurement": "IC50", "setting": "CHL-1, CHL-1, Skin (Melanoma)", "result": 14.3, "unit": "µM"}, {"measurement": "EC50", "setting": "[6]", "result": 11.4, "unit": "µM"}, {"measurement": "GI50", "setting": "[6]", "result": 11.1, "unit": "µM"}, {"measurement": "IC50", "setting": "[6]", "result": 11.4, "unit": "µM"}, {"measurement": "EC50", "setting": "CML-T1, CML-T1, Leukemia", "result": 3.69, "unit": "µM"}, {"measurement": "GI50", "setting": "CML-T1, CML-T1, Leukemia", "result": 3.68, "unit": "µM"}, {"measurement": "IC50", "setting": "CML-T1, CML-T1, Leukemia", "result": 3.69, "unit": "µM"}, {"measurement": "EC50", "setting": "COLO 201, Colo 201, Colon", "result": 8.51, "unit": "µM"}, {"measurement": "GI50", "setting": "COLO 201, Colo 201, Colon", "result": 8.45, "unit": "µM"}, {"measurement": "IC50", "setting": "COLO 201, Colo 201, Colon", "result": 8.51, "unit": "µM"}, {"measurement": "EC50", "setting": "COLO 205, Colo 205, Colon", "result": 10.7, "unit": "µM"}, {"measurement": "GI50", "setting": "COLO 205, Colo 205, Colon", "result": 10.7, "unit": "µM"}, {"measurement": "IC50", "setting": "COLO 205, Colo 205, Colon", "result": 10.7, "unit": "µM"}, {"measurement": "EC50", "setting": "COLO 320DM, Colon", "result": 7.72, "unit": "µM"}, {"measurement": "GI50", "setting": "COLO 320DM, Colon", "result": 7.67, "unit": "µM"}, {"measurement": "IC50", "setting": "COLO 320DM, Colon", "result": 7.72, "unit": "µM"}, {"measurement": "EC50", "setting": "[7]", "result": 11.6, "unit": "µM"}, {"measurement": "GI50", "setting": "[7]", "result": 11.6, "unit": "µM"}, {"measurement": "IC50", "setting": "[7]", "result": 11.6, "unit": "µM"}, {"measurement": "EC50", "setting": "[8]", "result": 5.35, "unit": "µM"}, {"measurement": "GI50", "setting": "[8]", "result": 4.93, "unit": "µM"}, {"measurement": "IC50", "setting": "[8]", "result": 5.35, "unit": "µM"}, {"measurement": "EC50", "setting": "COR-L23, COR-L23, Lung - NSCLC", "result": 23.8, "unit": "µM"}, {"measurement": "GI50", "setting": "COR-L23, COR-L23, Lung - NSCLC", "result": 23.6, "unit": "µM"}, {"measurement": "IC50", "setting": "COR-L23, COR-L23, Lung - NSCLC", "result": 23.8, "unit": "µM"}, {"measurement": "EC50", "setting": "[9]", "result": 4.76, "unit": "µM"}, {"measurement": "GI50", "setting": "[9]", "result": 4.61, "unit": "µM"}, {"measurement": "IC50", "setting": "[9]", "result": 4.76, "unit": "µM"}, {"measurement": "EC50", "setting": "CRO-AP2, CRO-AP2, Lymphoma", "result": 6.38, "unit": "µM"}, {"measurement": "GI50", "setting": "CRO-AP2, CRO-AP2, Lymphoma", "result": 6.36, "unit": "µM"}, {"measurement": "IC50", "setting": "CRO-AP2, CRO-AP2, Lymphoma", "result": 6.38, "unit": "µM"}, {"measurement": "EC50", "setting": "[10]", "result": "> 30", "unit": "µM"}, {"measurement": "GI50", "setting": "[10]", "result": "> 30", "unit": "µM"}, {"measurement": "IC50", "setting": "[10]", "result": "> 30", "unit": "µM"}, {"measurement": "EC50", "setting": "Calu-1, Calu1, Lung - NSCLC", "result": 13.9, "unit": "µM"}, {"measurement": "GI50", "setting": "Calu-1, Calu1, Lung - NSCLC", "result": 13.8, "unit": "µM"}, {"measurement": "IC50", "setting": "Calu-1, Calu1, Lung - NSCLC", "result": 13.9, "unit": "µM"}, {"measurement": "EC50", "setting": "Calu-6, Calu6, Lung - NSCLC", "result": 14.5, "unit": "µM"}, {"measurement": "GI50", "setting": "Calu-6, Calu6, Lung - NSCLC", "result": 15.7, "unit": "µM"}, {"measurement": "IC50", "setting": "Calu-6, Calu6, Lung - NSCLC", "result": 16.6, "unit": "µM"}]}]}
